The values below come from PubChem BioAssay AID1919004 (Molecular Pharmacology Branch, DTP, NCI, 2023).

The structures appear in SMILES notation. Several values for one entry are separate records, joined by “and”; a condition that tells them apart may be missing. Equal values may be shown once. Bounds are passed on as bounds.

The test system of the test is 883617-216-R-J1-PDC complex spheroids, growth, % test/control. The test can be described thus: Anticancer human tumor 883617-216-R-J1-PDC patient-derived bladder carcinoma cell line growth inhibition [AhR]. As to conditions: for viability, T/C: stronger effect = lower value. In short, it runs like this:
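Complex tumor spheroids co-cultured with HUVEC and human MSC stroma; AhR antagonists tested in combination with standard-of-care and investigational agents. Top concentration at or near clinical Cmax (else 10 microM), half-log dilutions; growth expressed as percent test/control.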
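Further: exposure lasted 7 days after dosing on day 3 of spheroid growth.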

In general, IC50 refers to the point on the concentration scale where inhibition reaches its midpoint. The viability, T/C is the result in the treated group divided by that in the control group, in per cent. Turning to `CC(C)CC(NC(=O)C(Cc1ccccc1)NC(=O)c1cnccn1)B(O)O` (stereo unspecified) + CC(CO)NC(=O)c1cc(-c2ccc(Cl)cc2)nn(-c2cnn(C)c2)c1=O, the 50% inhibitory concentration (IC50) reads like this: (curve of first compound, second compound 0.1 µM) 1.86 nM; (curve of first compound, second compound 0.316 µM) 2.2 nM; (curve of first compound, second compound 1 µM) 2.21 nM; (curve of first compound, second compound 3.16 µM) 1.59 nM; (curve of first compound, second compound 10 µM) 1.99 nM. Moreover, the viability, T/C was 106% (second compound 0.1 µM, first compound 0.000949 µM); 10.4% (second compound 0.1 µM, first compound 0.003 µM); 2.11% (second compound 0.1 µM, first compound 0.00949 µM); 2.02% (second compound 0.1 µM, first compound 0.03 µM); 1.92% (second compound 0.1 µM, first compound 0.0949 µM); 3.28% (second compound 0.1 µM, first compound 0.3 µM). In addition, the viability, T/C is, setting by setting: (second compound 0.316 µM, first compound 0.000949 µM) 123%; (second compound 0.316 µM, first compound 0.003 µM) 22.9%; (second compound 0.316 µM, first compound 0.00949 µM) 2.66%; (second compound 0.316 µM, first compound 0.03 µM) 3.45%; (second compound 0.316 µM, first compound 0.0949 µM) 3.14%; (second compound 0.316 µM, first compound 0.3 µM) 2.44%. The viability, T/C (second compound 1 µM, first compound 0.000949 µM) is 123%; the viability, T/C (second compound 1 µM, first compound 0.003 µM) is 23.5%; the viability, T/C (second compound 1 µM, first compound 0.00949 µM) is 1.76%; the viability, T/C (second compound 1 µM, first compound 0.03 µM) is 2.42%; the viability, T/C (second compound 1 µM, first compound 0.0949 µM) is 1.86%; the viability, T/C (second compound 1 µM, first compound 0.3 µM) is 3.98%. The viability, T/C (second compound 3.16 µM, first compound 0.000949 µM) was 80.2%; the viability, T/C (second compound 3.16 µM, first compound 0.003 µM) was 13.3%; the viability, T/C (second compound 3.16 µM, first compound 0.00949 µM) was 3.01%; the viability, T/C (second compound 3.16 µM, first compound 0.03 µM) was 2.25%; the viability, T/C (second compound 3.16 µM, first compound 0.0949 µM) is 2.47%; the viability, T/C (second compound 3.16 µM, first compound 0.3 µM) was 1.67%. For the same compound, the viability, T/C by setting is: (second compound 10 µM, first compound 0.000949 µM) 122%; (second compound 10 µM, first compound 0.003 µM) 10.3%; (second compound 10 µM, first compound 0.00949 µM) 1.69%; (second compound 10 µM, first compound 0.03 µM) 2.43%; (second compound 10 µM, first compound 0.0949 µM) 2.25%; (second compound 10 µM, first compound 0.3 µM) 1.87%.

Take `Nc1ncn(C2CC(O)C(CO)O2)c(=O)n1` (stereo unspecified): the viability, T/C is, setting by setting: (compound 0.00316 µM) 88.2% and 94.6% and 84.1%; (compound 0.01 µM) 93.2% and 102% and 118%; (compound 0.0316 µM) 94.7% and 90.6% and 73.1%; (compound 0.1 µM) 89.7% and 97% and 93.9%; (compound 0.316 µM) 85.9% and 82.2% and 113%; (compound 1 µM) 76.2% and 75.2% and 94.4%. The IC50 (curve of compound) was above 1000 nM.

Turning to `Nc1ncn(C2CC(O)C(CO)S2)c(=O)n1` (stereo unspecified), the viability, T/C is 101% and 103% and 61.3% (compound 0.000949 µM); 114% and 103% and 79.2% (compound 0.003 µM); 93.2% and 103% and 71.2% (compound 0.00949 µM); 97.5% and 101% and 64% (compound 0.03 µM); 88.2% and 99% and 72.8% (compound 0.0949 µM); 78.9% and 82.5% and 87.1% (compound 0.3 µM). Under “curve of compound”, the IC50 is above 300 nM.

As for `O=C(C=Cc1cccc(S(=O)(=O)Nc2ccccc2)c1)NO`, the viability, T/C by setting is: (compound 0.0316 µM) 107% and 95.8% and 72.5%; (compound 0.1 µM) 112% and 96.7% and 77.7%; (compound 0.316 µM) 92.8% and 76% and 74.6%; (compound 1 µM) 68.9% and 73.4% and 93.9%; (compound 3.16 µM) 40.8% (2×) and 35.7%; (compound 10 µM) 2.89% and 2.67% and 2.49%. Besides, under “curve of compound”, the IC50 was 2130 nM and 2250 nM and 2170 nM.
